EP4458916A1, “PHOTOCATALYTICALLY ACTIVE COATING COMPOSITION, METHOD FOR THE PRODUCTION THEREOF AND USE THEREOF” (priority 2023, dated 2024)
Read-outs that look alike come from different tables or passages of the source.

What was measured:
[1] = Immersion test: binding / wash-out of photocatalysts from SolGel coatings (1 h deionised water, UV-VIS signal loss); assay type: physicochemical; conditions: Rezeptur 5 coating on glass, dye 10 bis 40 mM; 1 h deionised water pH 6 ± 1, 22 ± 3 °C; relative UV-VIS signal loss at absorption maximum
Description: Für alle Untersuchungen wurden nach Beispiel 8 beschichtete Glasträger verwendet.
Um das Auswaschen der verschiedenen Farbstoffe in den Sol-Gel-Beschichtungen zu beurteilen wurde ein Immersionstest in vollentsalztem Wasser mit einem pH-Wert von (6 ± 1) und einer Wassertemperatur von (22 ± 3) °C für eine Stunde durchgeführt. Dazu wurden zunächst Schichten (Rezeptur 5, Beispiel 4, aufgefüllt mit 3,0 mL 2-Propanol; sh. Tabelle 3) mit erhöhter Farbstoffkonzentration (10 bis 40 mM; um die notwendige Auflösung bei der dünnen Schicht zu erreichen) auf Glas-Objektträgern erzeugt. Diese wurden nach dem Ablüften bei Raumtemperatur (30 min) eine Stunde bei 60°C nachgehärtet. Anschließend wurden die Schichten direkt im UV-VIS-Spektrometer vermessen. Die Ausgangswerte (Absorptionsmaximum des jeweiligen Farbstoffs) sollten dabei zwischen 0,05 A.U. und 1,50 A.U. liegen.
Nach einer Stunde in VE-Wasser wurden die Prüfkörper getrocknet und erneut gemessen. Aus den beiden Messungen wurde ein relativer Signalverlust in Prozent bei dem farbstoffspezifischen Absorptionsmaximum bestimmt.
Dieser Immersionstest diente dazu, das Auswaschverhalten verschiedener Farbstoffe aus Beschichtungssystemen zu beurteilen. Weiter soll er dabei helfen, verschiedene Farbstoffklassen oder verschiedene Farbstoffderivate einer Farbstoffklasse bezüglich dieser Charakteristik miteinander zu vergleichen. Die Ergebnisse sind in den folgenden Tabellen sortiert nach Stoffgruppen zusammengefasst: […]

[2] = test system: S.aureus; assay type: cell-based; conditions: for Log10 Reduktion Probe / Log10 Reduktion Dunkelkontrolle: label = Katalysator of the coating, Rezeptur 2 nach Beispiel 2c on Melamin with S-25a 2 mM
[3] = test system: Bakterien; assay: Room light tests (Raumlichtversuche): antimicrobial efficacy at 10 µW/cm^2 for 24 h; assay type: cell-based; conditions: Farbstoff 5 mM, coating Rezeptur 3, Beispiel 2a (2,5 eq aqueous boric acid, 50 mM)
Description: Um die antimikrobielle Wirksamkeit in einem realen Szenario abzuschätzen, wurden sogenannte Raumlichtversuche durchgeführt. Dazu wurden die mit Bakterien versetzten Probenträger mit einer, für Innenräume repräsentativen Lichtintensität von 10 µW/cm^2 für einen Zeitraum von 24 h bestrahlt.
Herstellung der Beschichtung erfolgte gemäß Beispiel 2a (2,5 eq wässrige Borsäure, 50 mM), mit Rezeptur 3. Die Ergebnisse sind in der Tabelle 63 zusammengefasst. Tabelle 63: Antimikrobielle Wirksamkeit bei Raumlichtbedingungen

[4] = test system: S. enterica; assay: Bacteria test following modified ISO 22196, photodynamic effect of different photocatalysts in the SolGel coating on S. enterica; assay type: cell-based; conditions: Rezeptur 4 nach Beispiel 5 on Melamin, 4 h
Excerpt: (§1) Die Bestimmung der antimikrobiellen Aktivität erfolgte nach einer modifizierten Version der ISO 22196:2011-08 ("Messung von antibakterieller Aktivität auf Kunststoff- und anderen porenfreien Oberflächen", Ausgabedatum: 2011-08).
(§2) Bei der Testdurchführung wurde ein dünner Flüssigkeitsfilm, in dem die Bakterien enthalten sind (1,25 x 10^4 /cm2), direkt auf die Probekörper (2,5 cm x 2,5 cm) aufgebracht. Direkt nach Beimpfung wurden von der Nullprobe die Bakterien von den Probekörperoberflächen mittels Ultraschall und Vortexen abgelöst und die Keimzahl (KBE (engl. CFU), Kolonie-bildende Einheit) bestimmt (t0-Wert). Ein weiterer Satz Nullproben und antimikrobiell ausgestatteter Proben wurden mit Bakterien im Flüssigkeitsfilm bei Raumtemperatur inkubiert. Nach 4 h wurden überlebende Bakterien von den Probekörperoberflächen mittels Ultraschall und Vortexen abgelöst und die Keimzahl bestimmt (t4-Wert).
(§3) Im Unterschied zu der in der ISO 22196:2011-08 beschriebenen Methode wurde das Inokulum nicht mit einer Folie abgedeckt und die Inkubationszeit von 24 auf 4 Stunden reduziert. Weiterhin wurden die Platten der Proben 3 und 4 mit Licht mit einer Intensität von 300 µW/cm2 belichtet.
(§4) Der Bakterientest wurde in Anlehnung an ISO 22196 nach oben beschriebener Methode durchgeführt. Die Ergebnisse sind Tabelle 57a bis 57b dargestellt. Tabelle 57a: Photodynamische Wirkung verschiedener Katalysatoren in der SolGel Beschichtung gegen S.aureus

[5] = test system: I. monocytoqenes; assay: Bacteria test following modified ISO 22196, photodynamic effect of different photocatalysts in the SolGel coating on I. monocytoqenes; assay type: cell-based; conditions: Rezeptur 4 nach Beispiel 5 on Melamin, 4 h
Excerpt: as §1, §2, §3, §4

| Molecule | Verlust durch Auswaschen [1] | other results |
| --- | --- | --- |
| 2,7,12-Tris(pyridinio-p-tolyl)-17-(p-(methoxymethyl)phenyl) porphycen bromid [reference compound] | > 70% | – |
| CC(O)C(=O)[O][Al]([O]C(=O)C(C)O)[O]C(=O)C(C)O (centres unmarked) [AL] | – | Log10 Reduktion Probe ([2]; 4 h, 300 µW/cm2): 3,3±0,4; Log10 Reduktion Dunkelkontrolle ([2]; 4 h, dark): 0,2±0,7 |
| O=P(N1CCCC1)(N1CCCC1)N1CCCC1 [PO] | – | Log10 Reduktion Probe ([2]; 4 h, 300 µW/cm2): 3,6±0,3; Log10 Reduktion Dunkelkontrolle ([2]; 4 h, dark): 0,0±0,1 |
| NCCCOC1=CC(=O)c2cccc3cccc1c23 [S-08] | 13% | – |
| O=C1C(COc2ccc(O)cc2)=Cc2cccc3cccc1c23 [S-12] | 3% | – |
| O=C1C(COc2ccc(CO)cc2)=Cc2cccc3cccc1c23 [S-13] | – | log reduction at 5000 µM ([3]; 24 h, dark control, read-out: Log10 Reduktion Dunkelkontrolle): 0.9; log reduction at 5000 µM ([3]; illuminated 10 µW/cm^2 for 24 h, read-out: Log10 Reduktion 24 h): 1.9 |
| O=C1C(C[n+]2ccccc2)=Cc2cccc3cccc1c23 [S-24a] | 9% | Photodynamische Wirkung gegen S.aureus (Log10 Reduktion), compared with the values of S-25a ([2]; Rezeptur 2, Beispiel 2a, filled up with IPA 1:2/1:5/1:8, dye content varied (Tabelle 56)): im Rahmen des Fehlers die gleichen Werte; S. enterica Log10 Reduktion Probe ([4]; 300 µW/cm2): 4,5±0,8; S. enterica Log10 Reduktion Dunkelkontrolle ([4]; dark): 0,0±0,2; I. monocytoqenes Log10 Reduktion Probe ([5]; 300 µW/cm2): 4,5±0,3; I. monocytoqenes Log10 Reduktion Dunkelkontrolle ([5]; dark): 0,0±0,3 |
| CCCCCCCCCCOc1ccc(/C=C/C(=O)CC(=O)/C=C/c2ccc(OCCCCCCCCCC)cc2)cc1 [S-52a] | 13% | – |
| COCCC1=Cc2nc1ccc1[nH]c(cc1CCOC)c1nc(c(O)cc3[nH]c2cc3CCOC)C(CCOC)=C1 [S-58a, 9-Hydroxy-2,7,12,17-tetra-(beta-methoxyethyl)porphycen] | 4% | S. aureus Log10 Reduktion Probe ([2]; Rezeptur 4 nach Beispiel 5 on Melamin, 4 h, 300 µW/cm2): 1,4±0,1; S. aureus Log10 Reduktion Dunkelkontrolle ([2]; Rezeptur 4 nach Beispiel 5 on Melamin, 4 h, dark): 0,0±0,1 |
| CC(=O)OCCC1=Cc2nc1ccc1[nH]c(cc1CCOC(C)=O)c1nc(c(O)cc3[nH]c2cc3CCOC(C)=O)C(CCOC(C)=O)=C1 [S-60a] | 8% | – |
| CC(=O)OCCC1=Cc2nc1ccc1[nH]c(cc1CCOC(C)=O)c1nc3c(cc4[nH]c2cc4CCOC(C)=O)OCCC3=C1 [S-60b] | 2% | – |
| COCCC1=Cc2nc1ccc1[nH]c(cc1CCOC)c1nc(c(OCCCO)cc3[nH]c2cc3CCOC)C(CCOC)=C1 [S-61a] | 6% | – |
| COCCC1=Cc2nc1ccc1[nH]c(cc1CCOC)c1nc(c(OCCCN)cc3[nH]c2cc3CCOC)C(CCOC)=C1 [S-62] | 3% | – |
| COCCC1=Cc2nc1ccc1[nH]c(cc1CCOC)c1nc(c(OCCCC(=O)O)cc3[nH]c2cc3CCOC)C(CCOC)=C1 [S-66a] | 3% | – |
| COCCC1=Cc2nc1ccc1[nH]c(cc1CCOC)c1nc(c(OCCC[Si](OC)(OC)OC)cc3[nH]c2cc3CCOC)C(CCOC)=C1 [S-68] | 9% | – |
| COCCC1=Cc2nc1c(O)cc1[nH]c(cc1CCOC)c1nc(c(NC(C)=O)cc3[nH]c2cc3CCOC)C(CCOC)=C1 [S-70] | 4% | – |
| COCCC1=Cc2nc1ccc1[nH]c(cc1CCOC)c1nc(c(OC(=O)CCC(N)C(=O)O)cc3[nH]c2cc3CCOC)C(CCOC)=C1 (centres unmarked) [S-74] | 11% | – |
| COCCC1=Cc2nc1ccc1[nH]c(cc1CCOC)c1nc(c(OCCCNC(=O)CCC(N)C(=O)O)cc3[nH]c2cc3CCOC)C(CCOC)=C1 (centres unmarked) [S-75] | 9% | – |
| OCCC1=Cc2nc1ccc1[nH]c(cc1CCO)c1nc(c(O)cc3[nH]c2cc3CCO)C(CCO)=C1 [Verbindungen S-59a] | 8% | – |
